Data as given in patent US8901118B2, “Compounds and methods for kinase modulation, and indications therefor” (Plexxikon Inc., priority 2010, dated 2014).

How the values were obtained:
TrkA kinase = TrkA kinase (Homo sapiens, UniProt P04629); assay: TrkA kinase biochemical activity assay (AlphaScreen); details: 100 μM ATP; read-out: Biochemical Inhibition IC50 TrkA
Summary of the method: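 IC50 values come from AlphaScreen PY20/streptavidin bead signal versus compound concentration. Kinase reaction: 1 ng/well TrkA, 100 μM ATP, 30 nM biotin-(E4Y)10 substrate, Mn2+-containing Hepes buffer pH 7.5, 5% DMSO, 40 min, room temperature; TrkC assayed by the same approach.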

[1] = Relative solubility by turbidity in aqueous buffers (pH 1.5, 4.5, 6.8, 7.4); type: physicochemical; details: for turbidity threshold (L, M, H) 1.4: pH 1.5 (SGF); for turbidity threshold (L, M, H) 4.5: pH 4.5 (SIF); for turbidity threshold (L, M, H) 6.8: pH 6.8 (SIF); for turbidity threshold (L, M, H) 7.4: pH 7.4 (HEPES)
Summary of the method: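 Reported value: concentration at which optical density at 490, 535 and 650 nm passes 0.01, taken as the mean of the three wavelengths. Buffers were 0.5M NaCl pH 1.5, 0.05M NaH2PO4 pH 4.5 or 6.8, and 10 mM HEPES/150 mM NaCl pH 7.4, each receiving serial 1:1 DMSO dilutions of a 25 mM stock.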

Sequence of TrkA kinase (P04629 33-796): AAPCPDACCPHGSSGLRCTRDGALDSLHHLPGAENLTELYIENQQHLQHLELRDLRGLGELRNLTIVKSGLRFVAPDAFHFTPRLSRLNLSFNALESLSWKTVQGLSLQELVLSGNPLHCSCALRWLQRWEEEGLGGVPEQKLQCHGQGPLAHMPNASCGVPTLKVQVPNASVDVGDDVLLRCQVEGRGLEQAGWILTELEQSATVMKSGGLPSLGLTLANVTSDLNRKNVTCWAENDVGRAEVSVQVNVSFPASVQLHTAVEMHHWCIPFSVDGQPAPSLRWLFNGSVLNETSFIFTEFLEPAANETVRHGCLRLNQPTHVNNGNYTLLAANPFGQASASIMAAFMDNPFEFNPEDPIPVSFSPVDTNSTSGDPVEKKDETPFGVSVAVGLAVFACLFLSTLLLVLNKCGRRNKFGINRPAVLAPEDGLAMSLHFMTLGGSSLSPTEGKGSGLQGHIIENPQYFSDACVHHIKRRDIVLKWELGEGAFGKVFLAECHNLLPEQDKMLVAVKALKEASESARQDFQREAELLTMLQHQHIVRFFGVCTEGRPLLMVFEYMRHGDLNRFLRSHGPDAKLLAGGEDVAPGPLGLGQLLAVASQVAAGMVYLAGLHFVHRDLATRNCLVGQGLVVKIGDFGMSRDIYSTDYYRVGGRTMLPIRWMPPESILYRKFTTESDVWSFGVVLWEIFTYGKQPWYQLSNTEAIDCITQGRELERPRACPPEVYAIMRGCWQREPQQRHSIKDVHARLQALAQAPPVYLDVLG

Structure (SMILES): CNc1ncnc2[nH]cc(C(=O)c3ccc(Nc4ccc(C5CC5)nc4)nc3F)c12 [Compound P-4094, [6-[(6-cyclopropyl-3-pyridyl)amino]-2-fluoro-3-pyridyl]-[4-(methylamino)-7H-pyrrolo[2,3-d]pyrimidin-5-yl]methanone]
- IC50 (TrkA kinase): < 10 nM
- turbidity threshold (L, M, H) 1.4 [1]: H (high solubility if the threshold concentration is >250 μm)
- turbidity threshold (L, M, H) 4.5 [1]: L (low solubility if the threshold concentration is <31.3 μM)
- turbidity threshold (L, M, H) 6.8 [1]: M (moderate solubility if the threshold concentration is 31.3 μM to 250 μM)
- turbidity threshold (L, M, H) 7.4 [1]: M (moderate solubility if the threshold concentration is 31.3 μM to 250 μM)

Structure (SMILES): CNc1ncnc2[nH]cc(C(=O)c3ccc(Nc4ccc(C(F)(F)F)nc4)nc3F)c12 [Compound P-4092, [2-fluoro-6-[[6-(trifluoromethyl)-3-pyridyl]amino]-3-pyridyl]-[4-(methylamino)-7H-pyrrolo[2,3-d]pyrimidin-5-yl]methanone]
- IC50 (TrkA kinase): < 10 nM
- turbidity threshold (L, M, H) 1.4 [1]: M (moderate solubility if the threshold concentration is 31.3 μM to 250 μM)
- turbidity threshold (L, M, H) 4.5 [1]: M (moderate solubility if the threshold concentration is 31.3 μM to 250 μM)
- turbidity threshold (L, M, H) 6.8 [1]: M (moderate solubility if the threshold concentration is 31.3 μM to 250 μM)
- turbidity threshold (L, M, H) 7.4 [1]: M (moderate solubility if the threshold concentration is 31.3 μM to 250 μM)

Structure (SMILES): CCc1ccc(Nc2ccc(C(=O)c3c[nH]c4ncnc(N[C@@H](C)c5ccc(F)cc5)c34)c(F)n2)cn1 [Compound P-4097, [6-[(6-ethyl-3-pyridyl)amino]-2-fluoro-3-pyridyl]-[4-[[(1S)-1-(4-fluorophenyl)ethyl]amino]-7H-pyrrolo[2,3-d]pyrimidin-5-yl]methanone]
- IC50 (TrkA kinase): < 100 nM
- turbidity threshold (L, M, H) 1.4 [1]: M (moderate solubility if the threshold concentration is 31.3 μM to 250 μM)
- turbidity threshold (L, M, H) 4.5 [1]: L (low solubility if the threshold concentration is <31.3 μM)
- turbidity threshold (L, M, H) 6.8 [1]: L (low solubility if the threshold concentration is <31.3 μM)
- turbidity threshold (L, M, H) 7.4 [1]: L (low solubility if the threshold concentration is <31.3 μM)

Structure (SMILES): CCCNc1ncnc2[nH]cc(C(=O)c3ccc(Nc4ccc(OC)nc4)nc3F)c12 [Compound P-4068, [2-fluoro-6-[(6-methoxy-3-pyridyl)amino]-3-pyridyl]-[4-(propylamino)-7H-pyrrolo[2,3-d]pyrimidin-5-yl]methanone]
- IC50 (TrkA kinase): < 10 nM
- turbidity threshold (L, M, H) 1.4 [1]: H (high solubility if the threshold concentration is >250 μm)
- turbidity threshold (L, M, H) 4.5 [1]: M (moderate solubility if the threshold concentration is 31.3 μM to 250 μM)
- turbidity threshold (L, M, H) 6.8 [1]: M (moderate solubility if the threshold concentration is 31.3 μM to 250 μM)
- turbidity threshold (L, M, H) 7.4 [1]: M (moderate solubility if the threshold concentration is 31.3 μM to 250 μM)

Structure (SMILES): CCNc1ncnc2[nH]cc(C(=O)c3ccc(Nc4ccc(CC)nc4)nc3F)c12 [Compound P-4123, [4-(ethylamino)-7H-pyrrolo[2,3-d]pyrimidin-5-yl]-[6-[(6-ethyl-3-pyridyl)amino]-2-fluoro-3-pyridyl]methanone]
- IC50 (TrkA kinase): < 10 nM
- turbidity threshold (L, M, H) 1.4 [1]: H (high solubility if the threshold concentration is >250 μm)
- turbidity threshold (L, M, H) 4.5 [1]: L (low solubility if the threshold concentration is <31.3 μM)
- turbidity threshold (L, M, H) 6.8 [1]: L (low solubility if the threshold concentration is <31.3 μM)
- turbidity threshold (L, M, H) 7.4 [1]: L (low solubility if the threshold concentration is <31.3 μM)

Structure (SMILES): O=C(c1ccc(NC2CCC(F)(F)CC2)nc1Cl)c1c[nH]c2ncnc(NC3CC3)c12 [Compound P-4059, [2-chloro-6-[(4,4-difluorocyclohexyl)amino]-3-pyridyl]-[4-(cyclopropylamino)-7H-pyrrolo[2,3-d]pyrimidin-5-yl]methanone]
- IC50 (TrkA kinase): < 100 nM
- turbidity threshold (L, M, H) 1.4 [1]: M (moderate solubility if the threshold concentration is 31.3 μM to 250 μM)
- turbidity threshold (L, M, H) 4.5 [1]: L (low solubility if the threshold concentration is <31.3 μM)
- turbidity threshold (L, M, H) 6.8 [1]: L (low solubility if the threshold concentration is <31.3 μM)
- turbidity threshold (L, M, H) 7.4 [1]: L (low solubility if the threshold concentration is <31.3 μM)

Structure (SMILES): COc1cncc(Nc2ccc(C(=O)c3c[nH]c4ncnc(NC(C)C)c34)c(F)n2)c1 [Compound P-4106, [2-fluoro-6-[(5-methoxy-3-pyridyl)amino]-3-pyridyl]-[4-(isopropylamino)-7H-pyrrolo[2,3-d]pyrimidin-5-yl]methanone]
- IC50 (TrkA kinase): < 10 nM
- turbidity threshold (L, M, H) 1.4 [1]: M (moderate solubility if the threshold concentration is 31.3 μM to 250 μM)
- turbidity threshold (L, M, H) 4.5 [1]: M (moderate solubility if the threshold concentration is 31.3 μM to 250 μM)
- turbidity threshold (L, M, H) 6.8 [1]: L (low solubility if the threshold concentration is <31.3 μM)
- turbidity threshold (L, M, H) 7.4 [1]: M (moderate solubility if the threshold concentration is 31.3 μM to 250 μM)

Structure (SMILES): CCc1ccc(Nc2ccc(C(=O)c3c[nH]c4ncnc(NC5CCC(F)(F)CC5)c34)c(F)n2)cn1 [Compound P-4096, [4-[(4,4-difluorocyclohexyl)amino]-7H-pyrrolo[2,3-d]pyrimidin-5-yl]-[6-[(6-ethyl-3-pyridyl)amino]-2-fluoro-3-pyridyl]methanone]
- IC50 (TrkA kinase): < 100 nM
- turbidity threshold (L, M, H) 1.4 [1]: H (high solubility if the threshold concentration is >250 μm)
- turbidity threshold (L, M, H) 4.5 [1]: L (low solubility if the threshold concentration is <31.3 μM)
- turbidity threshold (L, M, H) 6.8 [1]: L (low solubility if the threshold concentration is <31.3 μM)
- turbidity threshold (L, M, H) 7.4 [1]: L (low solubility if the threshold concentration is <31.3 μM)

Structure (SMILES): Fc1ccccc1Nc1ncc(Cc2c[nH]c3ncc(Cl)cc23)cn1 [Compound P-3014, [5-(5-Chloro-1H-pyrrolo[2,3-b]pyridin-3-ylmethyl)-pyrimidin-2-yl]-(2-fluoro-phenyl)-amine]
- IC50 (TrkA kinase): > 1000 nM
- turbidity threshold (L, M, H) 1.4 [1]: H (high solubility if the threshold concentration is >250 μm)
- turbidity threshold (L, M, H) 4.5 [1]: M (moderate solubility if the threshold concentration is 31.3 μM to 250 μM)
- turbidity threshold (L, M, H) 6.8 [1]: M (moderate solubility if the threshold concentration is 31.3 μM to 250 μM)
- turbidity threshold (L, M, H) 7.4 [1]: M (moderate solubility if the threshold concentration is 31.3 μM to 250 μM)

Structure (SMILES): CCc1ccc(Nc2ccc(C(=O)c3c[nH]c4ncnc(NC5CCC5)c34)c(F)n2)cn1 [Compound P-4095, [4-(cyclobutylamino)-7H-pyrrolo[2,3-d]pyrimidin-5-yl]-[6-[(6-ethyl-3-pyridyl)amino]-2-fluoro-3-pyridyl]methanone]
- IC50 (TrkA kinase): < 10 nM
- turbidity threshold (L, M, H) 1.4 [1]: M (moderate solubility if the threshold concentration is 31.3 μM to 250 μM)
- turbidity threshold (L, M, H) 4.5 [1]: M (moderate solubility if the threshold concentration is 31.3 μM to 250 μM)
- turbidity threshold (L, M, H) 6.8 [1]: M (moderate solubility if the threshold concentration is 31.3 μM to 250 μM)
- turbidity threshold (L, M, H) 7.4 [1]: M (moderate solubility if the threshold concentration is 31.3 μM to 250 μM)

Structure (SMILES): COc1ccc(Nc2ccc(C(=O)c3c[nH]c4ncnc(NCc5ccc(C(F)(F)F)nc5)c34)c(F)n2)cn1 [Compound P-4071, [2-fluoro-6-[(6-methoxy-3-pyridyl)amino]-3-pyridyl]-[4-[[6-(trifluoromethyl)-3-pyridyl]methylamino]-7H-pyrrolo[2,3-d]pyrimidin-5-yl]methanone]
- IC50 (TrkA kinase): < 10 nM
- turbidity threshold (L, M, H) 1.4 [1]: M (moderate solubility if the threshold concentration is 31.3 μM to 250 μM)
- turbidity threshold (L, M, H) 4.5 [1]: M (moderate solubility if the threshold concentration is 31.3 μM to 250 μM)
- turbidity threshold (L, M, H) 6.8 [1]: M (moderate solubility if the threshold concentration is 31.3 μM to 250 μM)
- turbidity threshold (L, M, H) 7.4 [1]: M (moderate solubility if the threshold concentration is 31.3 μM to 250 μM)

Structure (SMILES): O=C(c1ccc(NC2CCC(F)(F)CC2)nc1F)c1c[nH]c2ncnc(NC3CC3)c12 [Compound P-4062, [4-(cyclopropylamino)-7H-pyrrolo[2,3-d]pyrimidin-5-yl]-[6-[(4,4-difluorocyclohexyl)amino]-2-fluoro-3-pyridyl]methanone]
- IC50 (TrkA kinase): < 10 nM
- turbidity threshold (L, M, H) 1.4 [1]: H (high solubility if the threshold concentration is >250 μm)
- turbidity threshold (L, M, H) 4.5 [1]: L (low solubility if the threshold concentration is <31.3 μM)
- turbidity threshold (L, M, H) 6.8 [1]: M (moderate solubility if the threshold concentration is 31.3 μM to 250 μM)
- turbidity threshold (L, M, H) 7.4 [1]: L (low solubility if the threshold concentration is <31.3 μM)

Structure (SMILES): CCc1ccc(Nc2ccc(C(=O)c3c[nH]c4ncnc(NC)c34)c(F)n2)cn1 [Compound P-4124, [6-[(6-ethyl-3-pyridyl)amino]-2-fluoro-3-pyridyl]-[4-(methylamino)-7H-pyrrolo[2,3-d]pyrimidin-5-yl]methanone]
- IC50 (TrkA kinase): < 10 nM
- turbidity threshold (L, M, H) 1.4 [1]: M (moderate solubility if the threshold concentration is 31.3 μM to 250 μM)
- turbidity threshold (L, M, H) 4.5 [1]: L (low solubility if the threshold concentration is <31.3 μM)
- turbidity threshold (L, M, H) 6.8 [1]: L (low solubility if the threshold concentration is <31.3 μM)
- turbidity threshold (L, M, H) 7.4 [1]: M (moderate solubility if the threshold concentration is 31.3 μM to 250 μM)

Structure (SMILES): Fc1ccc(Nc2ncc(Cc3c[nH]c4ncc(Cl)cc34)cn2)cc1 [Compound P-3012, [5-(5-Chloro-1H-pyrrolo[2,3-b]pyridin-3-ylmethyl)-pyrimidin-2-yl]-(4-fluoro-phenyl)-amine]
- IC50 (TrkA kinase): > 1000 nM
- turbidity threshold (L, M, H) 1.4 [1]: M (moderate solubility if the threshold concentration is 31.3 μM to 250 μM)
- turbidity threshold (L, M, H) 4.5 [1]: M (moderate solubility if the threshold concentration is 31.3 μM to 250 μM)
- turbidity threshold (L, M, H) 6.8 [1]: M (moderate solubility if the threshold concentration is 31.3 μM to 250 μM)
- turbidity threshold (L, M, H) 7.4 [1]: M (moderate solubility if the threshold concentration is 31.3 μM to 250 μM)
